Assays:
[1] = target: T1, human type 2 5α-reductase (Homo sapiens, UniProt P31213); experiment: Inhibition of human type 2 5α-reductase (conversion of testosterone to DHT, microsomes); assay type: biochemical; settings: pH 6.0, 8 nM testosterone, 20 min preincubation, 20-40 min; read-out: IC50 Human Type 2 5AR
T1 construct: made in house; host or cells: recombinant baculovirus infected SF9 cells (microsomes); prostate tissue of BPH patients is printed as an alternative
T1 sequence (P31213 1-254): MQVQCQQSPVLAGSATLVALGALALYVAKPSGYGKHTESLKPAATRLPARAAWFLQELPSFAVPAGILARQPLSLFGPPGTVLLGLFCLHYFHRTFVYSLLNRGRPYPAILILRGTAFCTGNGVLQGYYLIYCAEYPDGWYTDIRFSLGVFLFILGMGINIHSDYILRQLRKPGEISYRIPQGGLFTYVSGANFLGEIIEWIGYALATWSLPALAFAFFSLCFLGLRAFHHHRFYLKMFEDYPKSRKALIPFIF
Procedure: (§1) Enzyme activities may be determined using microsomes derived from: 1) prostate tissue from benign prostatic hyperplasia (BPH) patients; 2) recombinant baculovirus infected SF9 cells that express human type 1 5α-reductase; or 3) recombinant baculovirus infected SF9 cells that express human type 2 5α-reductase. Microsomes were prepared by homogenization of the tissue or cells, followed by differential centrifugation of the homogenate. Microsome extracts were incubated with varying concentrations of [1,2,6,7-^3 H]-testosterone, 1 mM NADPH, and varying amounts of the compounds of formula (I,) i.e. a test compound, in buffer containing a NADPH regenerating system capable of maintaining NADPH concentrations for a period of time within the range 0.5-240 minutes. Corresponding incubations were carried out with no test compound as a control study.
(§2) For type 1 IC50 measurements, assay components except testosterone were preincubated for 10 minutes at pH 7.0, and following the addition of 100 nM testosterone the assays were allowed to proceed for 10-120 minutes. For type 2 IC50 measurements, assay components except testosterone were preincubated for 20 minutes at pH 6.0, and following the addition of 8 nM testosterone the assays were allowed to proceed for 20-40 minutes. […]

Human Adrenal 3BHSD = target: T2, Human Adrenal 3BHSD (Homo sapiens, UniProt P26439); experiment: Inhibition of human adrenal 3β-hydroxy-Δ^5-steroid dehydrogenase/3-keto-Δ^5-steroid isomerase (conversion of DHEA to androstenedione, human adrenal microsomes); assay type: biochemical; settings: pH 7.5, DHEA substrate, 1 mM NAD^+, 1 to 60 minutes
T2 construct: microsomes derived from human adrenal tissues; from tissue; host or cells: human adrenal tissue (microsomes)
T2 sequence (P26439 1-372): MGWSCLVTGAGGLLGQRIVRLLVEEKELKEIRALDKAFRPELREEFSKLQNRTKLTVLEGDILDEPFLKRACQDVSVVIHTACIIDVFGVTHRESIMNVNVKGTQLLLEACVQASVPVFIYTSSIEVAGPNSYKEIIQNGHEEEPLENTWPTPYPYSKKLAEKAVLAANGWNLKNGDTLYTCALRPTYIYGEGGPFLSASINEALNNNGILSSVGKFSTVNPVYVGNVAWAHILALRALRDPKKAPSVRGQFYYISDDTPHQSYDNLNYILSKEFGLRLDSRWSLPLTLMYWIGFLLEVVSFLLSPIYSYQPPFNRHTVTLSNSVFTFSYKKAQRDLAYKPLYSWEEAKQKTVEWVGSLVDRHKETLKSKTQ
Procedure: Enzyme activities are measured using microsomes derived from human adrenal tissues. Microsomes were prepared by homogenization of the tissue followed by differential centrifugation of the homogenate. Microsome extracts were incubated with varying concentrations of dehydroepiandrosterone (DHEA), 1 mM NAD^+, and varying amounts of the compounds of Formula (I), i.e. a test compound, in pH 7.5 buffer for a period of time within the range of 1 to 60 minutes. Corresponding incubations were carried out with no test compound as a control study. The percentage of conversion of DHEA to androstenedione in the presence of test compounds compared to the corresponding conversion in the control study was estimated using HPLC with radiochemical detection.

[2] = system: porcine granulosa cell 3β-hydroxy-Δ^5 -steroid dehydrogenase/3-keto-Δ^5 -steroid isomerase (3BHSD); settings: literature (Tan; Brandt and Levy); cited from earlier work
[3] = literature (McConnell; Rasmusson); cited from earlier work
[4] = system: bovine adrenal 3β-hydroxy-Δ^5 -steroid dehydrogenase/3-keto-Δ^5 -steroid isomerase (3BHSD); settings: literature (Tan; Brandt and Levy); cited from earlier work
[5] = target: T3, human type 1 5α-reductase (Homo sapiens, UniProt P18405); experiment: Inhibition of human type 1 5α-reductase (conversion of testosterone to DHT, microsomes of baculovirus infected SF9 cells); assay type: biochemical; settings: pH 7.0, 100 nM testosterone, 10 min preincubation, 10-120 min; read-out: IC50 Human Type 1 5AR
T3 construct: made in house; host or cells: recombinant baculovirus infected SF9 cells (microsomes)
T3 sequence (P18405 1-259): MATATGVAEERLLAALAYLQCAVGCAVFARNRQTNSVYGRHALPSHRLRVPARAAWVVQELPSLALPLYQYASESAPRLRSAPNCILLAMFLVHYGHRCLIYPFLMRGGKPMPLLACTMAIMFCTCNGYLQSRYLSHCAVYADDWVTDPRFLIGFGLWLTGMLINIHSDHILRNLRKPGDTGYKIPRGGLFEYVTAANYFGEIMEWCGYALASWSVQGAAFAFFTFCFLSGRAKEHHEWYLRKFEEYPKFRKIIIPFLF
Procedure: as §1, §2

Row | Structure (SMILES) | Ki (Human Adrenal 3BHSD) | further results
1 | CC(C)(C)c1ccc(C(F)(F)F)cc1NC(=O)[C@H]1CC[C@H]2[C@@H]3CC[C@H]4NC(=O)C=C[C@]4(C)[C@H]3CC[C@]12C [Compound 24, 17β-N-(2-t-Butyl-5-trifluoromethyl)phenylcarbamoyl-4-aza-5α-androst-1-en-3-one] | – | IC50 [1]: 1 to 10 nM
2 | CCN(CC)C(=O)[C@H]1CC[C@H]2[C@@H]3CC[C@H]4N(C)C(=O)CC[C@]4(C)[C@H]3CC[C@]12C [Compound 4-MA] | – | inhibition of porcine granulosa cell 3BHSD [2]: potent inhibition; hepatotoxicity [3]: hepatotoxicity; inhibition of bovine adrenal 3BHSD [4]: potent inhibition
3 | CC(C)(C)c1ccc(C(C)(C)C)c(NC(=O)[C@H]2CC[C@H]3[C@@H]4CC[C@H]5NC(=O)C=C[C@]5(C)[C@H]4CC[C@]23C)c1 [Compound 27, 17β-N-(2,5-Di-t-butyl)phenylcarbamoyl-4-aza-5α-androst-1-en-3-one] | 10 to 1000 nM | –
4 | C[C@]12C=CC(=O)N[C@@H]1CC[C@@H]1[C@@H]2CC[C@]2(C)[C@@H](C(=O)NC3(c4ccc5c(c4)OCO5)CCCCC3)CC[C@@H]12 [Compound 12, 17β-N-1-(3,4-Methylenedioxyphenyl)cyclohexylcarbamoyl-4-aza-5α-androst-1-en-3-one] | 10 to 1000 nM | IC50 [5]: 10 to 1000 nM

More lines, main results first:

Row | Ki (Human Adrenal 3BHSD) | Structure (SMILES) | further results
5 | 10 to 1000 nM | CN1C(=O)CC[C@]2(C)[C@H]3CC[C@]4(C)[C@@H](C(=O)Nc5cc(C(F)(F)F)ccc5C(C)(C)C)CC[C@H]4[C@@H]3CC[C@@H]12 [Compound 26, 17β-N-(2-t-Butyl-5-trifluoromethyl)phenylcarbamoyl-4-methyl-4-aza-5α-androstan-3-one] | –
6 | 10 to 1000 nM | CN1C(=O)CC[C@]2(C)[C@H]3CC[C@]4(C)[C@@H](C(=O)Nc5cc(C(F)(F)F)ccc5C(F)(F)F)CC[C@H]4[C@@H]3CC[C@@H]12 [Compound 23, 17β-N-(2,5-bis(Trifluoromethyl))phenylcarbamoyl-4-methyl-4-aza-5α-androstan-3-one] | –
7 | 10 to 1000 nM | CN1C(=O)CC[C@]2(C)[C@H]3CC[C@]4(C)[C@@H](C(=O)NC5(c6ccc(Cl)cc6)CCCC5)CC[C@H]4[C@@H]3CC[C@@H]12 [Compound 2, 17β-N-1-(4-Chlorophenyl)cyclopentylcarbamoyl-4-methyl-4-aza-5α-androstan-3-one] | –
8 | 10 to 1000 nM | CN1C(=O)CC[C@]2(C)[C@H]3CC[C@]4(C)[C@@H](C(=O)Nc5cc(C(C)(C)C)ccc5C(C)(C)C)CC[C@H]4[C@@H]3CC[C@@H]12 [Compound 29, 17β-N-(2,5-Di-t-butyl)phenylcarbamoyl-4-methyl-4-aza-5α-androstan-3-one] | –

— patent US5998427A, “Androstenones” (Glaxo Wellcome Inc., priority 1998, dated 1999)
